In patent US5622962A, “5α-reductase inhibitors” (priority 1995, dated 1997):

Tests used:
[1] = target: T1, Type I 5α-Reductase from Human Scalp (Homo sapiens, UniProt P18405); experiment: Human Type I 5α-reductase assay (conversion of [3H]-testosterone to 5α-reduced metabolites); assay type: biochemical; settings: pH 7.5, 0.3 μM; 50 nM [3H]-testosterone, pH 7.5, 25°, 180 min; compared to control reaction mixtures; read-out: percent inhibition of Type I AR
T1 construct: Scalp punch biopsies from graft recipient sites were obtained from human hair transplant procedures; from tissue; host or cells: human scalp punch biopsies (hair transplant graft recipient sites), homogenate, 100,000×g pellet
T1 sequence (P18405 1-259): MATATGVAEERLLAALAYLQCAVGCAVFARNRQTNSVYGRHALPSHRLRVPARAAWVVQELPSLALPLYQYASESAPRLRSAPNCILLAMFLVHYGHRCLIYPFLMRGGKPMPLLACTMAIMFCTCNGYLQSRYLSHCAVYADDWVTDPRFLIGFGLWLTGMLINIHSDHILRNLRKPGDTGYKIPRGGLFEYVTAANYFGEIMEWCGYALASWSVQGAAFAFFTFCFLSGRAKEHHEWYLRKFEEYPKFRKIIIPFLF

[2] = target: T2, Type II 5α-Reductase from Human Prostate (Homo sapiens, UniProt P31213); experiment: Human Type II 5α-reductase assay (conversion of [3H]-testosterone to 5α-reduced metabolites); assay type: biochemical; settings: sodium acetate pH 5.5, 25°, 30 min, compared to control reaction mixtures; for inhibition at 0.3 µM: pH 5.5, 0.3 μM, read-out: percent inhibition of Type II AR; for percent inhibition of Type II AR: 0.3 μM
T2 construct: The same procedure as above was used for preparations using tissue from prostate surgery; from tissue; host or cells: human prostate tissue from surgery, homogenate, 100,000×g pellet
T2 sequence (P31213 1-254): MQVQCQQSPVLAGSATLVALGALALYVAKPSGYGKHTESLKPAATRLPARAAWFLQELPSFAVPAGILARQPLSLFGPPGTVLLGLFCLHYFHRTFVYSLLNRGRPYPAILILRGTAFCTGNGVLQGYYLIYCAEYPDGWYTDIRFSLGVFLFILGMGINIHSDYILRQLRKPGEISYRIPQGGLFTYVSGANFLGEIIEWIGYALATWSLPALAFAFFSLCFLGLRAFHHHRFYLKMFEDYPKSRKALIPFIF

| inhibition at 0.3 µM [1] [%] | inhibition at 0.3 µM [2] [%] | percent inhibition of Type II AR [2] [%] | Compound |
| --- | --- | --- | --- |
| 55 | 36 | – | CN1C(=O)CC[C@]2(C)c3ccc(Sc4nc(-c5ccccc5)nc5ccccc45)cc3CC[C@@H]12 [Example 172, (+)-(4aR)-(10bR)-4-methyl-8-(2-phenyl-4-quinazolinylthio)-10b-methyl-1,2,3,4,4a,5,6,10b-octahydrobenzo[f]quinolin-3-one] |
| 65 | 78 | 77 | CN1C(=O)CC[C@]2(C)c3ccc(Sc4ccc5cc(F)ccc5n4)cc3CC[C@@H]12 [Example 173, (+)-(4aR)-(10bR)-4-methyl-8-(6-fluoro-2-quinolinylthio)-10b-methyl-1,2,3,4,4a,5,6,10b-octahydrobenzo[f]quinolin-3-one] |
| 82 | 80 | – | CN1C(=O)CC[C@]2(C)c3ccc(Sc4ccc5cccc(F)c5n4)cc3CC[C@@H]12 [Example 174, (+)-(4aR)-(10bR)-4-methyl-8-(8-fluoro-2-quinolinylthio)-10b-methyl-1,2,3,4,4a,5,6,10b-octahydrobenzo[f]quinolin-3-one] |
| 58 | 40 | – | CN1C(=O)CC[C@]2(C)c3ccc(Sc4nccc5sccc45)cc3CC[C@@H]12 [Example 175, (+)-(4aR)-(10bR)-4-methyl-8-(4-thieno [3,2-c]pyridylthio)-10b-methyl-1,2,3,4,4a,5,6,10b-octahydrobenzo[f]quinolin-3-on] |
| 25 | 15 | – | CN1C(=O)CC[C@]2(C)c3ccc(Sc4ccc5nc6ccccc6c(=O)n5n4)cc3CC[C@@H]12 [Example 176, (+)-(4aR)-(10bR)-4-methyl-8-(10-oxo-10H-2-pyridazino[6,1-b]-quinazolinylthio)-10b-methyl-1,2,3,4,4a,5,6,10b-octahydrobenzo[f]quinolin-3-one] |
| 58 | 15 | – | CN1C(=O)CC[C@]2(C)c3ccc(Sc4nc(-c5ccccc5)cc5ccccc45)cc3CC[C@@H]12 [Example 177, (+)-(4aR)-(10bR)-4-methyl-8-(3-phenyl-1-isoquinolinylthio)-10b-methyl-1,2,3,4,4a,5,6,10b-octahydrobenzo[f]quinolin-3-one] |
| 61 | 28 | – | COc1ccc(-c2c(-c3ccccc3)c(Sc3ccc4c(c3)CC[C@H]3N(C)C(=O)CC[C@]43C)nc3ccccc23)cc1 [Example 179, (+)-(4aR)-(10bR)-4-methyl-8-[3-phenyl-4-(4-methoxyphenyl)-2-quinolinylthio]-10b-methyl-1,2,3,4,4a,5,6, 10b-octahydrobenzo[f]quinolin-3-one] |
| 59 | 30 | – | CN1C(=O)CC[C@]2(C)c3ccc(Sc4nsc5ccccc45)cc3CC[C@@H]12 [Example 180, (+)-(4aR)-(10bR)-4-methyl-8-(3-[1,2-benzisothiazolyl]thio)-10b-methyl-1,2,3,4,4a,5,6,10b-octahydrobenzo[f]quinolin-3-one] |
| 63 | 31 | – | CN1C(=O)CC[C@]2(C)c3ccc(Sc4cc(-c5ccccc5)cc(-c5ccccc5)n4)cc3CC[C@@H]12 [Example 181, (+)-(4aR)-(10bR)-4-methyl-8-(2-[4,6-diphenyl]pyridylthio)-10b-methyl-1,2,3,4,4a,5,6,10b-octahydrobenzo[f]quinolin-3-one] |
| 63 | 100 | – | COc1cccc2sc(Sc3ccc4c(c3)CC[C@H]3N(C)C(=O)CC[C@]43C)nc12 [Example 182, (+)-(4aR)-(10bR)-4-methyl-8-(4-methoxy-2-benzothiazolylthio)-10b-methyl-1,2,3,4,4a,5,6,10b-octahydrobenzo[f]quinolin-3-one] |
| 89 | 88 | 87 | CN1C(=O)CC[C@]2(C)c3ccc(Sc4nc5c(Br)cccc5s4)cc3CC[C@@H]12 [Example 183, (+)-(4aR)-(10bR)-4-methyl-8-(4-bromo-2-benzothiazolylthio)-10b-methyl-1,2,3,4,4a,5,6,10b-octahydrobenzo[f]quinolin-3-one] |
| 73 | 81 | – | CN1C(=O)CC[C@]2(C)c3ccc(Sc4nc5c(-c6ccccc6)cccc5s4)cc3CC[C@@H]12 [Example 184, (+)-(4aR)-(10bR)-4-methyl-8-(4-phenyl-2-benzothiazolylthio)-10b-methyl-1,2,3,4,4a,5,6,10b-octahydrobenzo[f]quinolin-3-one] |
| 88 | 90 | – | Cc1ccc(C)c2sc(Sc3ccc4c(c3)CC[C@H]3N(C)C(=O)CC[C@]43C)nc12 [Example 185, (+)-(4aR)-(10bR)-4-methyl-8-(4,7-dimethyl-2-benzothiazolylthio)-10b-methyl-1,2,3,4,4a,5,6,10b-octahydrobenzo[f]-quinolin-3-one] |
| 90 | 79 | – | CCCc1cccc2sc(Sc3ccc4c(c3)CC[C@H]3N(C)C(=O)CC[C@]43C)nc12 [Example 186, (+)-(4aR)-(10bR)-4-methyl-8-(4-propyl-2-benzothiazolylthio)-10b-methyl-1,2,3,4,4a,5,6,10b-octahydrobenzo[f]quinolin-3-one] |
| 93 | 94 | – | CCc1cccc2sc(Sc3ccc4c(c3)CC[C@H]3N(C)C(=O)CC[C@]43C)nc12 [Example 187, (+)-(4aR)-(10bR)-4-methyl-8-(4-ethyl-2-benzothiazolylthio)-10b-methyl-1,2,3,4,4a,5,6,10b-octahydrobenzo[f]quinolin-3-one] |
| 88 | 78 | – | CN1C(=O)CC[C@]2(C)c3ccc(Sc4nc5c(OC(F)(F)F)cccc5s4)cc3CC[C@@H]12 [Example 188, (+)-(4aR)-(10bR)-4-methyl-8-(4-trifluoromethoxy-2-benzothiazolylthio)-10b-methyl-1,2,3,4,4a,5,6,10b-octahydrobenzo[f]-quinolin-3-one] |
| 84 | 19 | – | CN1C(=O)CC[C@]2(C)c3ccc(Sc4nc5c(C(C)(C)C)ccc(C(C)(C)C)c5s4)cc3CC[C@@H]12 [Example 189, (+)-(4aR)-(10bR)-4-methyl-8-[4,7-di(t-butyl)-2-benzothiazolylthio]-10b-methyl-1,2,3,4,4a,5,6,10b-octahydrobenzo[f]-quinolin-3-one] |
| 76 | 26 | – | Cc1ccc(C(F)(F)F)c2sc(Sc3ccc4c(c3)CC[C@H]3N(C)C(=O)CC[C@]43C)nc12 [Example 190, (+)-(4aR)-(10bR)-4-methyl-8-(4-methyl-7-trifluoromethyl-2-benzothiazolylthio)-10b-methyl-1,2,3,4,4a,5,6,10b-octahydrobenzo[f]quinolin-3-one] |
| 65 | 19 | 28 | CN1C(=O)CC[C@]2(C)c3ccc(SCc4cc5ccccc5cn4)cc3CC[C@@H]12 [Example 191, (+)-(4aR)-(10bR)-8-(3-isoquinolinylmethylthio)-4,10b-dimethyl-1,2,3,4,4a,5,6,10b-octahydrobenzo[f]quinoline-3-one] |
| 80 | 33 | – | CN1C(=O)CC[C@]2(C)c3ccc(SCc4nc5ccccc5s4)cc3CC[C@@H]12 [Example 192, (+)-(4aR)-(10bR)-8-(2-benzothiazolylmethylthio)-4,10b-dimethyl-1,2,3,4,4a,5,6,10b-octahydrobenzo[f]quinoline-3-one] |
| 90 | 71 | – | CN1C(=O)CC[C@]2(C)c3ccc(SC(c4ccccc4)c4ccccc4)cc3CC[C@@H]12 [Example 195, (4aR)-(10bR)-8-diphenylmethylthio-4,10b-dimethyl-1,2,3,4,4a,5,6,10b-octahydrobenzo[f]-quinoline-3-one] |
| 59 | 72 | 64 | CN1C(=O)CC[C@]2(C)c3ccc(-c4cncc5ccccc45)cc3CC[C@@H]12 [Example 200, (+)-(4aR)-(10bR)-4-methyl-8-(4-isoquinolinyl)-10b-methyl-1,2,3,4,4a,5,6,10b-octahydrobenzo [f]quinolin-3-one] |
| 69 | 60 | 57 | CN1C(=O)CC[C@]2(C)c3ccc(-c4cnc5ccccc5c4)cc3CC[C@@H]12 [Example 201, (+)-(4aR)-(10bR)-4-methyl-8-(3-quinolinyl)-10b-methyl-1,2,3,4,4a,5,6,10b-octahydrobenzo[f]quinolin-3-one] |
| 41 | 48 | – | CN1C(=O)CC[C@]2(C)c3ccc(-c4ccc([N+](=O)[O-])cn4)cc3CC[C@@H]12 [Example 202, (+)-(4aR)-(10bR)-4-methyl-8-(5-nitro-2-pyridinyl)-10b-methyl-1,2,3,4,4a,5,6,10b-octahydrobenzo[f]quinolin-3-one] |
